Assay results reported in ChEMBL document CHEMBL1201862, “PubChem BioAssay data set” (2004).
Active and inactive are the calls of the source.

How the values were obtained:
[1] = biological target: T1, Rac GTPase-activating protein 1 (Homo sapiens, UniProt Q9H0H5); test: blockers of MgcRacGAP-driven Rac1 GTP hydrolysis – biochemical, ADP Hunter fluorescence, primary and confirmatory, confirmation (AID 624330); assay type: functional
T1 sequence (Q9H0H5 whole entry): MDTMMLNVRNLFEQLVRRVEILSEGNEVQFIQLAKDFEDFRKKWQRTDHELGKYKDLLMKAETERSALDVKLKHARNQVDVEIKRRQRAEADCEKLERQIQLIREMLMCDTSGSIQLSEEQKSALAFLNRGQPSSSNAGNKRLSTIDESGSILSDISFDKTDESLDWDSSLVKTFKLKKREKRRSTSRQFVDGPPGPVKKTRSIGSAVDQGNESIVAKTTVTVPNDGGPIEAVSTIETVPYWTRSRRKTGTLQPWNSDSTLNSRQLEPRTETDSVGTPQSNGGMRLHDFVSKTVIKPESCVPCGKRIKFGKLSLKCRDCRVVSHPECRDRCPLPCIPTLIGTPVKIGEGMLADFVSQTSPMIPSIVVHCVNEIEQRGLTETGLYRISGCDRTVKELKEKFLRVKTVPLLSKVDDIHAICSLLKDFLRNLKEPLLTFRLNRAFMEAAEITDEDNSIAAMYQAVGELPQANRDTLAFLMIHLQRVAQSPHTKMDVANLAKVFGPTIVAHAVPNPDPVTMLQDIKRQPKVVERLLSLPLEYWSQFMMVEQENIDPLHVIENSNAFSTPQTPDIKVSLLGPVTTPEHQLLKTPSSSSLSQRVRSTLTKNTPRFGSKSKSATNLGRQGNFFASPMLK

[2] = test system: Streptococcus sp. 'group A'; test: Streptococcus pyogenes SK(-)GAS viability under kanamycin – luminescence, BacTiterGlo, confirmation, counter-screen for streptokinase expression inhibitor project, dose response (AID 1900); assay type: functional, organism-based
Streptococcus = test: GAS UMAA2166 growth inhibition – luminescence, BacTiterGlo, counter-screen for streptokinase expression inhibitor project, dose response (AID 1915); assay type: functional, organism-based;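 further: potency for reduction of bacterial viability or growth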
INS1 = test: INS-1E survival protection against cytokine death – cell-based, luminescence, retest, dose response (AID 449756); assay type: functional; settings: Rattus norvegicus;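 further: cell death triggered by IL-1 beta plus TNF-alpha plus IFN-gamma mixture; protective hits raise ATP signal compared with cytokine alone wells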
[3] = biological target: T2, Corticotropin-releasing factor receptor 2/Corticotropin-releasing factor-binding protein (Homo sapiens, UniProt P24387+Q13324); test: Dose Response confirmation of uHTS hits for small molecule antagonists of the CRF-binding protein and CRF-R2 receptor complex.; assay type: functional; settings: read-out: IC50_Mean
T2 sequence (Q13324 whole entry): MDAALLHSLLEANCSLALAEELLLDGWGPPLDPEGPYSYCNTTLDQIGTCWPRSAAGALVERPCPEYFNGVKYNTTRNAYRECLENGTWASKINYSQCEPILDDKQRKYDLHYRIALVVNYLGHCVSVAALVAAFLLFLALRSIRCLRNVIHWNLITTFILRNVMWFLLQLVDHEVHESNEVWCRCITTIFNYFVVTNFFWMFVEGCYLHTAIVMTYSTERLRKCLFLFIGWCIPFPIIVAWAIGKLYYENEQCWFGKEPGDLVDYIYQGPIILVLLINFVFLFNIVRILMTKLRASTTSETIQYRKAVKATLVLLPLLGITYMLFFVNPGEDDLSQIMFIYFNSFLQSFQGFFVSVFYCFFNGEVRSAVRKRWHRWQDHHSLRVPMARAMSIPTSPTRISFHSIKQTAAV
T2 sequence (P24387 whole entry): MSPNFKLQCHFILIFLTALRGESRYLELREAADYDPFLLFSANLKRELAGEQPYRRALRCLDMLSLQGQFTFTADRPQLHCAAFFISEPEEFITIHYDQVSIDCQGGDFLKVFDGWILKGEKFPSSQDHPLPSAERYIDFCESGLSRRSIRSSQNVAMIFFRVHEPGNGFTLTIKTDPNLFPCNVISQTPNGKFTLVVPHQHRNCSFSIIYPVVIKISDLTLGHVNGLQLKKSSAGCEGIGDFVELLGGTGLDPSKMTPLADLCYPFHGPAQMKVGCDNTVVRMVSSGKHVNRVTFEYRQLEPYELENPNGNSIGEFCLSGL

[4] = biological target: T2, Corticotropin-releasing factor receptor 2/Corticotropin-releasing factor-binding protein; test: activators of CRF receptor 2 with binding protein – uHTS hits, confirmation (AID 602473); assay type: functional; settings: read-out: EC50_Mean
[5] = viability of PTEN-deleted HCT116 cells – cell-based, HCT116 PTEN knockout, dose response (AID 1047); assay type: functional;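 further: HCT116 colon tumor cells with PTEN knocked out; cells exposed to compound for 60 hours before readout; potency for loss of cell viability measured by luminescence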
[6] = alpha-synuclein stem-loop luciferase translation blockers – H4 neuroglioma cells, luminescence, confirmation (AID 1988); assay type: functional, cell-based
[7] = luciferase reporter signal suppression in cells – H4 neuroglioma cells, luminescence, dose response (AID 1990); assay type: functional, cell-based
[8] = biological target: T3, Replicative DNA helicase DnaB (Mycobacterium tuberculosis, UniProt P9WMR3); test: DnaB intein splicing inhibitors, dose response, biochemical, cell-free fluorescence (AID 449749); assay type: functional
T3 sequence (P9WMR3 whole entry): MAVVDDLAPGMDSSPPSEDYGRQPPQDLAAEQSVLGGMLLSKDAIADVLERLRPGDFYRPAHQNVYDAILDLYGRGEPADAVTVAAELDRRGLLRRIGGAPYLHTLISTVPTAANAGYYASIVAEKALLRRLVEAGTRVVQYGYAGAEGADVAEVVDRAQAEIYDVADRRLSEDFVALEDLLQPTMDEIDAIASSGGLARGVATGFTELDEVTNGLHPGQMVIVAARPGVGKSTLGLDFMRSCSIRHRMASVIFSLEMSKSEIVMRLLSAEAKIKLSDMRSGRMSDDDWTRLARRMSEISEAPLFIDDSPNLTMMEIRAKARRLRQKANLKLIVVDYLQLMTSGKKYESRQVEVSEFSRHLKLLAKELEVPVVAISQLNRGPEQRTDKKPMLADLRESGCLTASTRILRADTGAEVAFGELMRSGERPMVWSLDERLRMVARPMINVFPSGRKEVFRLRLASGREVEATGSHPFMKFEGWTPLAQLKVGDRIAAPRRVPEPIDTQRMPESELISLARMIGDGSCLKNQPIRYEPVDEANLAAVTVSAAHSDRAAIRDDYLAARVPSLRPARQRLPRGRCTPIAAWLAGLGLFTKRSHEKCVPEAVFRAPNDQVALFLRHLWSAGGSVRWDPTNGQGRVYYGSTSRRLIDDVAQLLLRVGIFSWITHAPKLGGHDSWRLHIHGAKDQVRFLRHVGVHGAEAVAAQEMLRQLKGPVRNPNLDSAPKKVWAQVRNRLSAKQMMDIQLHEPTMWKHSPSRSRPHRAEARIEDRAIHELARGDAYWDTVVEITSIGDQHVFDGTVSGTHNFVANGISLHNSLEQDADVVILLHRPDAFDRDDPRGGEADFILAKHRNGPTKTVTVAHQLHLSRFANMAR

[9] = Luminescence Cell-Based Dose Response HTS to Identify Inhibitors of 5'UTR Stem-Loop Driven Prion Protein mRNA Translation in H4 Neuroglioblastoma Cells. [Related pubchem assays: 1827 (Project Summary), 1813 (Primary HTS)]; assay type: functional
Protein RecA = biological target: T4, Protein RecA (Mycobacterium tuberculosis, UniProt P9WHJ3); test: Fluorescence Cell-Free Homogeneous Dose Retest to Identify Inhibitors of RecA-Intein Splicing Activity. [Related pubchem assays (depositor defined):AID2097, AID2223, AID489010, AID492950]; assay type: functional
T4 sequence (P9WHJ3 whole entry): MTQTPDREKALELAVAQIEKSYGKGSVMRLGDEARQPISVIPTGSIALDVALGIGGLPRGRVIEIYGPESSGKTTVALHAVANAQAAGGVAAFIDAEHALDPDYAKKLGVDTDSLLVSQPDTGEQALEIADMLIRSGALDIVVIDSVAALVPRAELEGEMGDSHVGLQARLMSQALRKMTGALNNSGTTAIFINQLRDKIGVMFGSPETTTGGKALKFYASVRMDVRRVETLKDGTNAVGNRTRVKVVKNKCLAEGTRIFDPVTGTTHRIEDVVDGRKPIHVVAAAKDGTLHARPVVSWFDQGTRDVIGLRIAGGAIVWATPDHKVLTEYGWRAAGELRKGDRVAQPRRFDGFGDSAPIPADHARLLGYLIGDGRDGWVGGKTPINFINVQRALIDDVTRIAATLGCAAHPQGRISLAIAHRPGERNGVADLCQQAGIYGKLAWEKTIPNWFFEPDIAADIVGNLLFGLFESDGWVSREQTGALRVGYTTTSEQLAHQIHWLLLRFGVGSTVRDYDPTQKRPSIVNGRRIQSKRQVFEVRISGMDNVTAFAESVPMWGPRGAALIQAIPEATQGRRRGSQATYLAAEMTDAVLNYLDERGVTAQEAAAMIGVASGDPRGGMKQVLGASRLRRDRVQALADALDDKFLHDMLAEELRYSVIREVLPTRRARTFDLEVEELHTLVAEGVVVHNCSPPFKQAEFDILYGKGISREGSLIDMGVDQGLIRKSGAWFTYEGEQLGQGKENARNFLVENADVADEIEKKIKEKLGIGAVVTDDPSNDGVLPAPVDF

[10] = Trypanosoma cruzi growth suppression in host cells – NIH3T3 host cells, beta-gal luminescence, confirmation (AID 2044); assay type: functional, cell-based;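 further: intracellular parasites grown in NIH/3T3 mouse fibroblasts as host cells; luminescent beta-galactosidase reporter signal from transgenic T. cruzi replicating inside host cells; inhibitors lower the luminescence signal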
[11] = NIH3T3 cell viability loss – ATP luminescence, mouse fibroblasts, counter-screen, dose response (AID 2010); assay type: functional, cell-based;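 further: cells exposed to compound for about 90 hours before reading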
Cytochrome P450 2D6 = Cytochrome P450 2D6 (Homo sapiens, UniProt P10635);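 further: CYP2D6 member of a cytochrome P450 panel assay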
Sequence of Cytochrome P450 2D6 (P10635 whole entry): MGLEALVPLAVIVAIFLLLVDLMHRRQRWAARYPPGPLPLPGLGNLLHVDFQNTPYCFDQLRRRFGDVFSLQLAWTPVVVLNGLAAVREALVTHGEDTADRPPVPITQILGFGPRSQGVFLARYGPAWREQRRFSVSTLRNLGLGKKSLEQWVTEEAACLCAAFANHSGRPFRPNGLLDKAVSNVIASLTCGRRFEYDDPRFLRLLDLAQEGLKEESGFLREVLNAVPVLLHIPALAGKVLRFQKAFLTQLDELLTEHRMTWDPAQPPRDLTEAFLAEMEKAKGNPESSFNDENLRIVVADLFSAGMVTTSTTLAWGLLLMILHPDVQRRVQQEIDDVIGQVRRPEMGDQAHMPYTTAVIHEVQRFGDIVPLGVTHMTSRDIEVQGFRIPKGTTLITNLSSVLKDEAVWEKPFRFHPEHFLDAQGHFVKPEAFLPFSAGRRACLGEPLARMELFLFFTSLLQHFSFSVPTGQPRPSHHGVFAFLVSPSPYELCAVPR

[12] = Luminescence Cell-Based Dose Retest to Confirm Inhibitors of Cancer Stem Cells. [Related pubchem assays (depositor defined):AID2717, AID2721]; assay type: functional; settings: Homo sapiens
[13] = Luminescence Cell-Based Dose Confirmation HTS to Identify Inhibitors of Platelet Dense Granule Release. [Related pubchem assays: 1663 (Primary HTS), 1678 (Summary of Project)]; assay type: functional
[14] = biological target: Luciferin 4-monooxygenase (Photinus pyralis, UniProt P08659); test: inhibition of purified Photinus pyralis luciferase – biochemical, luminescence, dose response (AID 1891)
Sequence of Luciferin 4-monooxygenase (P08659 whole entry): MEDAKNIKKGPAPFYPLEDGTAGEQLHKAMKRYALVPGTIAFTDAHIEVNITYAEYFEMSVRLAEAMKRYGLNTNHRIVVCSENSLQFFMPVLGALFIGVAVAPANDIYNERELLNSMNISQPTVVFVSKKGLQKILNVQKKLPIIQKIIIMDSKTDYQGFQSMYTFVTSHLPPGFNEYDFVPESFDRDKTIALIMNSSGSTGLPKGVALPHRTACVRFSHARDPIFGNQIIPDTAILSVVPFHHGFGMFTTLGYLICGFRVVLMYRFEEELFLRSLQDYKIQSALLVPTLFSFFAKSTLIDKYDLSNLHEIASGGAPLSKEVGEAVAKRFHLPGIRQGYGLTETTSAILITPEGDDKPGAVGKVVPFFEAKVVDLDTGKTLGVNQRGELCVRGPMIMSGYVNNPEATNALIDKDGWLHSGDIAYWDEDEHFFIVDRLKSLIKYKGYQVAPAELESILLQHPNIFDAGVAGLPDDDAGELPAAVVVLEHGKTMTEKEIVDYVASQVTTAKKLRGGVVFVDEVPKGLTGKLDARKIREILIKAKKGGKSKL

H4 = test: Luminescence Cell-Based Dose Response HTS to Identify Activators of 5'UTR Stem-Loop Driven Prion Protein mRNA Translation in H4 Neuroglioblastoma Cells. [Related pubchem assays: 1829 (Project Summary), 1814 (Primary HTS)]; assay type: functional; settings: Homo sapiens
[15] = Luminescence Cell-Based Dose Response HTS to Identify Activators of Luciferase Translation or Activity in H4 […] Cells. [Related pubchem assays: 1829 (Project Summary), 1814 (Primary HTS)]; assay type: functional

COc1cc(/C=N/NC(=O)C(=O)N2CCCC2)ccc1O
IC50 [1]: 26.7 µM (active)

O=C(CNc1ccc(F)cc1)N/N=C/c1c(O)ccc2ccccc12
EC50 [2]: 0.846 µM (active) | EC50 (Streptococcus): 1.67 µM (active) | AC50 (INS1): 2.94 µM (active)

COc1cccc(C2CCCN2Cc2nc(-c3cnccn3)no2)c1 (stereo not given)
IC50 [3]: > 47.1 µM (inactive) | EC50 [4]: > 53 µM (inactive)

C=C[C@H](Cc1ccccc1)N(Cc1ccccc1)S(=O)(=O)N(Cc1ccccc1)[C@H](C=C)Cc1ccccc1
AC50 (INS1): 4.47 µM (active)

COc1ccc(N2CC2c2ccncc2)cc1 (stereo not given)
IC50 [1]: 144 µM (active)

Cc1n[nH]c2c1C(C1CC=CCC1)C(C#N)=C(N)O2 (stereo not given)
EC50 [5]: 34.7 µM (active)

COc1cc(CN2CCN(C(=O)CC(C)C)CC2)cc(OC)c1O
IC50 [1]: 78.6 µM (active)

Cc1cc(C)c(OCC(O)CN2CCN(C(=O)c3ccccc3)CC2)c(C)c1 (stereo not given)
IC50 [1]: 139 µM (active)

COC(=O)c1ccccc1NC(=O)C(C)n1nc(C)c2c(C)n(-c3ccccc3)nc2c1=O (stereo not given)
EC50 [6]: 22.9 µM (active) | EC50 [7]: 25.5 µM (active) | AC50 [8]: 208 µM (active) | EC50 [9]: 20.1 µM (active) | EC50 (Protein RecA): > 380 µM (inactive)

CC1CCCCC1NC(=O)NC(=O)CCl (stereo not given)
AC50 [8]: 22.5 µM (active) | EC50 (Protein RecA): 12.3 µM (active)

CCCN(CCC)C(=O)c1cc([N+](=O)[O-])cc2c1-c1ccc([N+](=O)[O-])cc1C2=C(C#N)C#N
EC50 [10]: 1.62 µM (active) | AC50 (INS1): 6.7 µM (active) | EC50 [11]: 10.7 µM (active)

COc1ccc(NC2CCCN(C(=O)CN3CCOC3=O)C2)cc1 (stereo not given)
IC50 [1]: 109 µM (active)

CCOC(=O)N1CCC(N2CCN(S(=O)(=O)c3ccc4ccccc4c3)CC2)CC1
IC50 [1]: 151 µM (active)

CCOC(=O)c1c(CCl)nc2ccccc2c1-c1ccccc1
AC50 [8]: 9.56 µM (active) | EC50 (Protein RecA): 12.6 µM (active)

Cc1ccc(-c2nn(-c3ccccc3)cc2/C=N/NC(=O)c2ccc3c(c2)OCO3)cc1
AC50 (INS1): 5.54 µM (active)

Cc1cccc(-n2c(C)cc(/C=N/n3cnnc3)c2C)c1
AC50 (INS1): 14.1 µM (active)

O=C1/C(=C/c2cccc([N+](=O)[O-])c2)CCc2ccccc21
AC50 [8]: 8.57 µM (active) | EC50 (Protein RecA): 13.3 µM (active)

CCCc1c(-c2ccc(O)cc2)nn(-c2ccc(O)cc2)c1-c1ccc(O)cc1 [PROPYLPYRAZOLETRIOL]
AC50 (Cytochrome P450 2D6): 12.6 µM (inconclusive) | AC50 [12]: 3.78 µM (active) | AC50 [8]: 2.92 µM (active) | EC50 (Protein RecA): 4.88 µM (active)

NNC(=S)NC1CCS(=O)(=O)C1 (stereo not given)
IC50 [3]: > 47.1 µM (inactive) | EC50 [4]: > 53 µM (inactive)

Cc1ccc(CCNC(=O)C2CCC(=O)N2C2CCCC2)cc1 (stereo not given)
IC50 [3]: > 47.1 µM (inactive) | EC50 [4]: > 53 µM (inactive)

COc1cc(CNc2ccccc2SC)ccc1O
EC50 [13]: > 112 µM (not active) | IC50 [3]: > 47.1 µM (inactive) | EC50 [14]: > 112 µM (not active) | EC50 [4]: > 53 µM (inactive)

O=C(Nc1ccccc1SCC1CSc2nc3ccccc3c(=O)n21)c1ccccc1 (stereo not given)
IC50 [3]: > 47.1 µM (inactive) | EC50 [4]: > 53 µM (inactive)

O=S1(=O)CCN(Cc2csc(-c3cccs3)n2)CC1
EC50 [13]: 17.9 µM (active) | AC50 (INS1): 145 µM (active) | EC50 [14]: > 112 µM (not active)

Cc1csc(NC(=O)c2nc3nccc(C)n3n2)n1
EC50 (H4): 37.4 µM (active) | EC50 [15]: 36.1 µM (active)

Cc1ccccc1OCC(=O)OCC(=O)c1c[nH]c2ccccc12
IC50 [3]: > 47.1 µM (inactive) | EC50 [4]: > 53 µM (inactive)
